Values quoted from earlier work, collected in patent US6503396B2 (priority 2000, dated 2003).

Key:
breast cancer = breast cancer patients who exhibited no response to conventional anti-cancer drugs
ovarian cancer = ovarian cancer patients who exhibited no response to conventional anti-cancer drugs
lung cancer = lung cancer patients who exhibited no response to conventional anti-cancer drugs

CC(=O)O[C@H]1C(=O)[C@@]2(C)[C@H]([C@H](OC(=O)c3ccccc3)[C@]3(O)C[C@H](OC(=O)[C@H](O)[C@@H](NC(=O)c4ccccc4)c4ccccc4)C(C)=C1C3(C)C)[C@]1(OC(C)=O)CO[C@@H]1C[C@@H]2O [taxol]
response rate to taxol (breast cancer): 50%
response rate to taxol (ovarian cancer): 30%
response rate to taxol (lung cancer): 20%
